Source: PMC10208151 (mAbs, 2023)

Target: BMSmAb (Bristol Myers Squibb mAb, a type of IgG4)
Test: STD NMR titration
Format: binding

**Q.** With `OC[C@H]1O[C@@](CO)(O[C@H]2O[C@H](CO)[C@@H](O)[C@H](O)[C@H]2O)[C@@H](O)[C@@H]1O` [sucrose] as the molecule, how does the Kd read?
**A.** The Kd was 67.8 mM.
